Consider 6 compounds from US8008007B2, “S-adenosyl-L-methionine analogs with extended activated groups for transfer by methyltransferases” (RWTH Aachen, priority 2005, dated 2011).

One assay relates to M.BcnIB. Kind of assay: Modification of cytosine-N4 in duplex oligodeoxynucleotide V.VI by M.BcnIB, nucleoside analysis by HPLC/ESI-MS. The class given is biochemical. The conditions noted are these: duplex V.VI 12.5 μM, cofactor 300 μM, enzyme 15 μM, 37° C. over night. An excerpt: Transfer of the activated ethyl (CH2CH3), propyl (CH2CH2CH3), prop-2-enyl (CH2CHCH2), prop-2-ynyl group (CH2CCH), but-2-ynyl (CH2CCCH3), pent-2-ynyl (CH2CCCH2CH3) or benzyl group (CH2C6H5) from cofactors 3-9 by the DNA adenine-N6 methyltransferase M.TaqI, the DNA cytosine-C5 methyltransferase M.HhaI variant Q82A or the DNA cytosine-N4 methyltransferase M.BcnIB to DNA was first investigated using short duplex oligodeoxynucleotides as substrates. After enzymatic transfer the duplex oligodeoxynucleotides were enzymatically fragmented and the resulting modified nucleosides were analyzed by reversed-phase HPLC coupled with ESI-MS.
The duplex oligodeoxynucleotide V.VI was produced by mixing equal molar amounts (2.5 nmol) of complementary single-stranded oligodeoxynucleotide V (5′-[…]-3′) (SEQ ID NO. 3) and VI (5′-[…]-3′) (SEQ ID NO. 4) in water, heating at 85° C. for 5 min and slow cooling to room temperature. […] M.BcnIB was denatured by heating to 80° C. for 10 min and incubated with proteinase K at 55° C. 1 h. Hydrolysis products were removed using gel filtration column (G-25 column, Amersham Biosciences).
The obtained solutions of duplex oligodeoxynucleotides were treated with buffer ( 1/10 volume, 100 mM Tris-HCl, 100 mM magnesium chloride, 10 mM zinc acetate, pH 7.5) containing Nuclease P1 (1500 u, Sigma) and calf intestine alkaline phosphatase (30 u, MBI Fermentas) and incubated at 37° C. for 4 h. Nucleosides were analyzed by reversed-phase HPLC (Discovery C18 150×2.1 mm, 5 μm, equipped with a Supelguard Discovery C18 20×2.1 mm, 5 μm, pre-column, Supelco, Germany) coupled with a mass spectrometric detector (HP 1100 series ESI-MS equipped with single quadruple). Compounds were eluted with methanol (0% for 6 min, followed by linear gradients to 56% in 15 min and to 80% in 1 min) in ammonium formate buffer (20 mM, pH 4.25 for cofactors 3, 4, 6 and pH 3.5 for cofactor 5) at a flow of 0.3 mL/min and detected at 280 nm. For on-line mass spectrometric detection post-column mobile phase modification (equal co-flow of 96% methanol, 4% formic acid and 1 mM sodium hydroxide) was used to enhance the detection efficiency of 2′-deoxycytidine and its derivatives. Mass spectra were recorded in 50-600 m/z range.

The target in another assay is T1, M.HhaI-Q82A (Haemophilus parahaemolyticus, UniProt P05102, Q82A).
T1 construct: made in house
T1 sequence (P05102 whole entry Q82A): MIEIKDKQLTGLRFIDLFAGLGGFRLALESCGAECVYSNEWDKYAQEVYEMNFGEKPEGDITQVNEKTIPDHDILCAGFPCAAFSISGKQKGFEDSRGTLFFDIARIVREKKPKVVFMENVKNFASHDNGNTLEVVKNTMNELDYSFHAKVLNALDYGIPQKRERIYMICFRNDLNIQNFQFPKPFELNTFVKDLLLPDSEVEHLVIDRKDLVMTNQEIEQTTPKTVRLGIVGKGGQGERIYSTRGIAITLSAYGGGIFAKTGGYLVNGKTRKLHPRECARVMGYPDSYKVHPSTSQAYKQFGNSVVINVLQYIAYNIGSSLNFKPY
Description: DNA protection assay with M.HhaI variant Q82A on phage lambda DNA. It counts as biochemical. The conditions noted are these: 1.16 μg phage lambda DNA, cofactor 300 μM, 37° C. for 4 h, then R.Hin6I; pH 7.4 (pH 6.0 for cofactor 6). An excerpt: (§1) Transfer kinetics of the activated ethyl (—CH2CH3), propyl (—CH2CH2CH3), prop-2-enyl (—CH2CH═CH2), prop-2-ynyl (—CH2C≡CH), but-2-ynyl (—CH2C≡CCH3), pent-2-ynyl (—CH2C≡CCH2CH3) and benzyl group (—CH2C6H5) from cofactors 3-9 by the DNA adenine-N6 methyltransferase M.TaqI and its variant V21 G, the DNA cytosine-C5 methyltransferase M.HhaI and its variant Q82A, the DNA cytosine-N4 methyltransferase M.BcnIB and the DNA cytosine-C5 methyltransferase M.SssI variant Q142A to phage lambda DNA (48502 base pairs) were investigated using a DNA protection assay. This assay makes use of the fact that DNA methyltransferase-catalyzed modifications of nucleobases within the recognition sequences of restriction endonucleases can protect the DNA against fragmentation by these enzymes. […] Unmodified DNA containing 5′-TCGA-3′ recognition sequences is readily fragmentated by R.TaqI. After DNA modification by M.TaqI in the presence of a cofactor with an activated group Z—R modified 5′-TCGA^Z—R-3′ sequences are formed and, as a result, R.TaqI is unable to fragment the modified DNA. Occurrence of fragmentation is then analyzed by agarose gel electrophoresis.
By varying the amounts of DNA methyltransferase, this assay is used to investigate the enzymatic activities of the different DNA methyltransferases with cofactors 3-9 and compare them to the enzymatic activities with the natural cofactor 1. The minimal amount of DNA methyltransferase needed to fully protect 1 μg of phage lambda DNA against restriction endonuclease fragmentation under the given experimental conditions is defined as one enzyme unit (u).
Afterwards, the reactions were stopped by heating to 80° C. for 10 min. […] Parallel control experiments were performed with phage lambda DNA in the absence of M.HhaI and in the presence of M.HhaI (278 ng).
The DNA protection assay with the M.HhaI variant Q82A (see Example 2B) was performed as described for the wild type enzyme (Example 3B.1).

Another assay addresses T2, M.SssI-Q142A (Spiroplasma monobiae, UniProt P15840, Q142A).
T2 construct: made in house
Description: DNA protection assay with M.SssI variant Q142A on phage lambda DNA. The class given is biochemical. The note with it: 1 μg phage lambda DNA, cofactor 300 μM, 37° C. for 4 h, then R.BstUI.
Text: as §1
By varying the amounts of DNA methyltransferase, this assay is used to investigate the enzymatic activities of the different DNA methyltransferases with cofactors 3-9 and compare them to the enzymatic activities with the natural cofactor 1. […]
Two fold serial dilutions (20 μL) of M.SssI-Q142A (starting with 3300 ng, 73 pmol) in buffer (10 mM Tris hydrochloride, 50 mM sodium chloride, 1 mM dithiothreitol, pH 7.9), phage lambda DNA (1 μg, 31.3 fmol, 3113 5′-CG-3′ recognition sequences, […] recognition sequences, MBI Fermentas) and the natural cofactor 1 (300 μM) or cofactor analogs 5 and 7 (300 μM) were incubated at 37° C. for 4 h. […] Loading buffer (10 μL, 0.25% bromphenol blue, 30% glycerol) was added to each sample, and aliquots (15 μL) were analyzed for the degree of protection by agarose gel (1%) electrophoresis.

For a further assay, the system named is pBR322 plasmid DNA. The note with it: modification with M.TaqI or M.HhaI-Q82A/N304A, cofactor 300 μM, 4 h.
Another assay concerns the target T3, M.HhaI-Q82A/N304A (Haemophilus parahaemolyticus, UniProt P05102, N304A/Q82A).
T3 construct: made in house
Description: DNA protection assay with M.HhaI variant Q82A/N304A on phage lambda DNA. The note with it: 1.16 μg phage lambda DNA, cofactor 300 μM, 37° C. for 1 h, enzyme from 1100 ng. The class given is biochemical. On the procedure:
Afterwards, the reactions were stopped by heating to 80° C. for 10 min. […] Parallel control experiments were performed with phage lambda DNA in the absence of M.HhaI-Q82A/N304A and in the presence of M.HhaI-Q82A/N304A (1100 ng).

T2 sequence (P15840 whole entry Q142A): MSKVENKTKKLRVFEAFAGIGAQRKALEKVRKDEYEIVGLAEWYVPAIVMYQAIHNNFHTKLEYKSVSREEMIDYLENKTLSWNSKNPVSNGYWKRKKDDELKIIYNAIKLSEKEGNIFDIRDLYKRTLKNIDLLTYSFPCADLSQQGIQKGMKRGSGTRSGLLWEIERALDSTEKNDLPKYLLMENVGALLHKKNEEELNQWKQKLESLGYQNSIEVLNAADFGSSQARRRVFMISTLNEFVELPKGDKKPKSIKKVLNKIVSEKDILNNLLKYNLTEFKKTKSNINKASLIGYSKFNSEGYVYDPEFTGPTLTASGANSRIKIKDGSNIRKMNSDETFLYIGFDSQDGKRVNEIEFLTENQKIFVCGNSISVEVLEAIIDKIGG
T3 sequence (P05102 whole entry Q82A/N304A): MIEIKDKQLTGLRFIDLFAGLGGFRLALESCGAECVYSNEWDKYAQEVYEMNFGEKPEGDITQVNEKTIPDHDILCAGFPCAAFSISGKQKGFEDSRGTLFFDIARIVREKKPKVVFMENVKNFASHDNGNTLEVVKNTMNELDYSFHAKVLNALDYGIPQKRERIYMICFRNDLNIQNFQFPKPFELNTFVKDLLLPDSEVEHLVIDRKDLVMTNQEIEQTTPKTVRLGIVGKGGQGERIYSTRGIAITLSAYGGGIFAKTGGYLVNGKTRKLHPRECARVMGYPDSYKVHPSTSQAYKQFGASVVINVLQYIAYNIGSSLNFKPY

As for `CC[S+](CCC(N)C(=O)O)CC1OC(n2cnc3c(N)ncnc32)C(O)C1O` (stereo not drawn) [Cofactor 3], the “cofactor function for M.BcnIB (transfer of group Z-R to cytosine-N4)” value (shortened to “cofactor function for M.BcnIB”) in the assay with M.BcnIB was “functions as a cofactor”. The “specific activity of M.HhaI-Q82A with the cofactor” value (“specific activity of M.HhaI-Q82A” for short) at M.HhaI-Q82A amounted to 7 u/μg.
Regarding `C#CC[S+](CCC(N)C(=O)O)CC1OC(n2cnc3c(N)ncnc32)C(O)C1O` (stereo not drawn) [Cofactor 6], the “cofactor function for M.BcnIB” value in the assay on M.BcnIB was “does not function as a cofactor”.
On to `CC#CC[S+](CCC(N)C(=O)O)CC1OC(n2cnc3c(N)ncnc32)C(O)C1O` (mixture of isomers) [Cofactor 7], for which the “specific activity of M.HhaI-Q82A” value at M.HhaI-Q82A is listed as 58 u/μg. Besides, the “specific activity of M.SssI-Q142A with the cofactor” value at M.SssI-Q142A was 0.6 u/μg.
`NCCCC(=O)NCC#CC[S+](CCC(N)C(=O)O)CC1OC(n2cnc3c(N)ncnc32)C(O)C1O` (stereo not drawn) [Cofactor 10]: the “two-step labeling of amino-modified pBR322 DNA with fluorescein N-hydroxysuccinimidyl ester” value with pBR322 plasmid DNA is “labeling is sequence-specific”. In addition, at M.HhaI-Q82A/N304A, the “protection of phage lambda DNA against R.Hin6I fragmentation” value is on record as “almost protected phage lambda DNA”.
On to `C=CC[S+](CCC(N)C(=O)O)CC1OC(n2cnc3c(N)ncnc32)C(O)C1O` (stereo not drawn) [Cofactor 5], for which, in the assay with M.BcnIB, the “cofactor function for M.BcnIB” value was “functions as a cofactor”. For the same compound, at M.HhaI-Q82A, the “specific activity of M.HhaI-Q82A” value came to 29 u/μg. In addition, the “specific activity of M.SssI-Q142A with the cofactor” value on M.SssI-Q142A worked out at 1.2 u/μg.
In the case of `CCC[S+](CCC(N)C(=O)O)CC1OC(n2cnc3c(N)ncnc32)C(O)C1O` (stereo not drawn) [Cofactor 4], in the assay with M.BcnIB, the “cofactor function for M.BcnIB” value is given as “does not function as a cofactor”. Further, the “specific activity of M.HhaI-Q82A” value at M.HhaI-Q82A was determined as 0 u/μg.
